Experimental data: US20190010217A1, “MOBILIZING HIV-INFECTED CELLS FROM LYMPHATIC RESERVOIRS” (INDIANA UNIVERSITY RESEARCH & TECHNOLOGY CORPORATION, priority 2016, published 2019)
Entries after “also recorded” stand apart in the source; their conditions may differ.

What was measured:
S1P1 = S1P1 (Homo sapiens, UniProt P21453); test: Beta arrestin-TANGO assay (luciferase reporter) in HTLA cells transfected with Nef
Description: The role of beta arrestin in GPCR regulation, including S1P1 allows for the design and use of an S1P1 Arrestin-Tango expressing cell line (TANGO construct commercially available from AddGene) to test S1P1 signaling and its inhibitors. […] Upon activation of the S1P1 by an agonist, β-arrestin is recruited to the C-terminus of the receptor. This is followed by cleavage of the GPCR fusion protein at the TEV protease site. Cleavage results in the release of the tTA transcription factor, which after transport to the nucleus, activates transcription of the luciferase reporter gene. Thus, potential SNP1 inhibitors can be screened using the S1P1 Arresting Tango assay looking for an increase of luciferase activity indicating an increase in S1P1 signalling.
The role of beta arrestin in GPCR regulation, including S1P1, allows for the design and use of an S1P1 Arrestin-Tango expressing cell line (TANGO construct commercially available from AddGene) to test S1P1 signaling and its inhibitors. […] Upon activation of the S1P1 by an agonist, β-arrestin is recruited to the C-terminus of the receptor. This is followed by cleavage of the GPCR fusion protein at the TEV protease site. Cleavage results in the release of the tTA transcription factor, which after transport to the nucleus, activates transcription of the luciferase reporter gene.
Specifically, HTLA cells were transfected with NEF wt and analyzed for luciferase activity in response to increasing concentrations of sphingosine-phosphate (S1P).

Nef-ER T1 cells = test: Adhesion of Nef-ER T cells to endothelial cells (HUVEC co-culture, FACS); type: cell-based; settings: HIV-Nef expressing T cells (Nef-ER T1) on HUVECs; 10 μM atorvastatin pre-incubation at least 12 hours; FIG. 5
Description: Nef was activated in Nef-ER cells by culturing them with RPMI1640+10% FBS (fetal bovine serum) and 1 μM 4-hydrotamoxifen for at least 6 hours or overnight at 37° C. For inhibitor use, the Nef-ER cells were pre-incubated for at least 12 hours with 10 μM atorvastatin. Other inhibitors may require shorter pre-incubations.
Approximately 100K HUVECS were seeded per well in a collagen-coated 6-well plate. Cells were incubated overnight in EGM2(LONZA) medium. Nef-ER cells were stained using 5 μM Calcein AM (Ref C3100MP, Fischer Scientific) in 1 mL of staining solution and incubated for 30 minutes at 37° C. The cells were centrifuged at 300 g for 5 min, and the cell pellet was resuspended in 2 mL RPMI+10% FBS. Cells were centrifuged at 300 g for 5 min and the supernatant was removed.
After staining, 1 μL of 1 mM 4-Hydrotamoxifen per ml of EGM2(LONZA) medium was added for final concentration of 1 μM. Stained T-cells were resuspended in EGM2 media at final concentration of 250,000 cells per ml. 250,000 stained T-cells were added to each well of 6-well plate of HUVECs for co-culture (with or without 10 μM atorvastatin to maintain inhibition) and incubated for 60 minutes. The plate was gently shaken one time after 30 minutes. Cells were washed very gently 3 times with PBS (phosphate buffered saline). Cells were then trypsinized and analyzed by fluorescence activated cell sorting (FACS).

GPCRs-Gαi signaling = settings: pretreatment of lymphocytes with PTX; cited from earlier work

S1P1, sequence (P21453 whole entry): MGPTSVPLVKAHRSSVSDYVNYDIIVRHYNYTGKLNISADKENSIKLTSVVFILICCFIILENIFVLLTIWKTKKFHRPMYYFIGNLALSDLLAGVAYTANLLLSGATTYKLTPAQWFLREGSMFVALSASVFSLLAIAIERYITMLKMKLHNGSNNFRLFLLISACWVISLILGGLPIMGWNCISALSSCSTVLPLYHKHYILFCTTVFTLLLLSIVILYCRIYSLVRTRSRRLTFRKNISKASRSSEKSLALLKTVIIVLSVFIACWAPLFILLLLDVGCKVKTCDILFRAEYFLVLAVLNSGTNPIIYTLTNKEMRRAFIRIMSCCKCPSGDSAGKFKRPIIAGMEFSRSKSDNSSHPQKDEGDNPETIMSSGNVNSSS

Molecule: sphingosine-phosphate [S1P]
- β-arrestin recruitment (luciferase activity) in response to increasing concentrations (S1P1; HTLA cells transfected with NEF wt, increasing concentrations of S1P, FIG. 7): more activation
- β-arrestin activation (luciferase activity) (S1P1; HTLA cells transfected with Nef, treated with 1mM S1P and/or FTY720, FIG. 8): significantly more activation; also recorded: increase in β-arrestin activation

Molecule: CC(C)c1c(C(=O)Nc2ccccc2)c(-c2ccccc2)c(-c2ccc(F)cc2)n1CC[C@@H](O)C[C@@H](O)CC(=O)O [statin, atorvastatin]
- T cell adhesion (Nef-ER T1 cells): reduces T cell adhesion

Molecule: Pertussis toxin
- retention of T cells in lymph nodes by fingolimod (GPCRs-Gαi signaling): prevented the retention of T cells in lymph nodes
